Source: ChEMBL document CHEMBL1201862, “PubChem BioAssay data set” (2004)
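Method: 48-hour compound exposure of cells in 96-well plates, five concentrations, linear interpolation of endpoints. Here, GI50 denotes the concentration required for 50% inhibition of growth.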 Calls of active or inactive are those of the source. No stated cut-off is given here; in the data, active = GI50 up to about 1.1 µM and inactive = higher.

What was measured:
Experiment in all cases: NCI tumour cell line growth inhibition, 48 h
A498 = system: A498
COLO 205 = system: COLO 205
HL-60 = system: HL-60
HOP-92 = system: HOP-92
KM12 = system: KM12
M14 = system: M14
MDA-N = system: MDA-N
NCI-H23 = system: NCI-H23
NCI-H522 = system: NCI-H522
OVCAR-3 = system: OVCAR-3
OVCAR-4 = system: OVCAR-4
PC-3 = system: PC-3
SF-268 = system: SF-268
SK-MEL-28 = system: SK-MEL-28
SK-MEL-2 = system: SK-MEL-2
SK-OV-3 = system: SK-OV-3
SR = system: SR
SW-620 = system: SW-620
U-251 = system: U-251
UACC-257 = system: UACC-257

SMILES	GI50 (A498)	GI50 (COLO 205)	GI50 (HL-60)	GI50 (HOP-92)	GI50 (KM12)	GI50 (M14)	GI50 (MDA-N)	GI50 (NCI-H23)	GI50 (NCI-H522)	GI50 (OVCAR-3)	GI50 (OVCAR-4)	GI50 (PC-3)	GI50 (SF-268)	GI50 (SK-MEL-28)	GI50 (SK-MEL-2)	GI50 (SK-OV-3)	GI50 (SR)	GI50 (SW-620)	GI50 (U-251)	GI50 (UACC-257)
CN(C)CCNC(=O)c1cccc2nc3c(ccc4ccccc43)nc12	2.95 µM (inactive)	1.6 µM (inactive)	1.17 µM (inactive)	3.61 µM (inactive)	2.09 µM (inactive)	2.49 µM (inactive)	1.72 µM (inactive)	3.9 µM (inactive)	4.22 µM (inactive)	7.89 µM (inactive)	2.21 µM (inactive)	2.79 µM (inactive)	0.675 µM (active)	2.05 µM (inactive)	1.91 µM (inactive)	5.42 µM (inactive)	0.362 µM (active)	1.1 µM (active)	1.47 µM (inactive)	1.74 µM (inactive)
CC(C)(C)[Si](C)(C)OCC1CCC(n2cnc3c(NC(=O)c4ccccc4)ncnc32)O1 (stereo not given)	21.1 µM (inactive)	18.5 µM (inactive)	18 µM (inactive)	16.6 µM (inactive)	17.3 µM (inactive)	16.7 µM (inactive)	17.2 µM (inactive)	18.4 µM (inactive)	16.4 µM (inactive)	14 µM (inactive)	21.8 µM (inactive)	20.6 µM (inactive)	17.7 µM (inactive)	14.3 µM (inactive)	19 µM (inactive)	20 µM (inactive)	29.9 µM (inactive)	20 µM (inactive)	18.2 µM (inactive)	18.7 µM (inactive)
O=C(CSc1nnc(-c2ccccn2)s1)N/N=C/c1ccc([N+](=O)[O-])cc1	31 µM (inactive)	> 100 µM (inactive)	> 100 µM (inactive)	16.3 µM (inactive)	> 100 µM (inactive)	> 100 µM (inactive)	> 100 µM (inactive)	> 100 µM (inactive)	> 100 µM (inactive)	> 100 µM (inactive)	> 100 µM (inactive)	65.8 µM (inactive)	22.1 µM (inactive)	> 100 µM (inactive)	77.1 µM (inactive)	35.2 µM (inactive)	> 100 µM (inactive)	> 100 µM (inactive)	14.5 µM (inactive)	> 100 µM (inactive)
Cc1ccc2nc(C(=O)O)c(=O)[nH]c2c1	> 100 µM (inactive)	> 100 µM (inactive)	> 100 µM (inactive)	> 100 µM (inactive)	> 100 µM (inactive)	> 100 µM (inactive)	> 100 µM (inactive)	> 100 µM (inactive)	> 100 µM (inactive)	> 100 µM (inactive)	> 100 µM (inactive)	> 100 µM (inactive)	> 100 µM (inactive)	> 100 µM (inactive)	> 100 µM (inactive)	> 100 µM (inactive)	> 100 µM (inactive)	> 100 µM (inactive)	> 100 µM (inactive)	> 100 µM (inactive)
O=[N+]([O-])c1cccc2nc3ccccc3c(NCCCN3CCCCC3)c12	< 0.0115 µM (active)	< 0.0107 µM (active)	0.0252 µM (active)	< 0.01 µM (active)	0.014 µM (active)	0.0116 µM (active)	0.0102 µM (active)	< 0.01 µM (active)	< 0.01 µM (active)	< 0.0126 µM (active)	< 0.01 µM (active)	< 0.01 µM (active)	0.0191 µM (active)	0.0417 µM (active)	0.0148 µM (active)	0.028 µM (active)	< 0.01 µM (active)	< 0.01 µM (active)	< 0.0135 µM (active)	0.0219 µM (active)
COc1cc(-c2oc3c(OC)c(O)cc(O)c3c(=O)c2OC)ccc1O	4.2 µM (inactive)	29.1 µM (inactive)	3.56 µM (inactive)	3.83 µM (inactive)	10 µM (inactive)	4.12 µM (inactive)	10.6 µM (inactive)	16.7 µM (inactive)	8.17 µM (inactive)	2.68 µM (inactive)	8.41 µM (inactive)	6.44 µM (inactive)	3.08 µM (inactive)	12.9 µM (inactive)	2.75 µM (inactive)	1.55 µM (inactive)	3.24 µM (inactive)	13.8 µM (inactive)	3.66 µM (inactive)	26 µM (inactive)
C/C(=N\NC(=S)N1CCC(N2CCCCC2)CC1)c1ccccn1	2.37 µM (inactive)	2.8 µM (inactive)	0.796 µM (active)	2.92 µM (inactive)	2.81 µM (inactive)	1.87 µM (inactive)	2.49 µM (inactive)	3.29 µM (inactive)	< 0.01 µM (active)	2.4 µM (inactive)	4.73 µM (inactive)	3.56 µM (inactive)	3.68 µM (inactive)	4.12 µM (inactive)	> 100 µM (inactive)	4.93 µM (inactive)	0.519 µM (active)	3.1 µM (inactive)	3.8 µM (inactive)	2.9 µM (inactive)
COC(=O)C1=C(C)NC(=O)N2[C@@H](CCOCc3ccccc3)CC[C@@H]12	> 50 µM (inactive)	> 50 µM (inactive)	> 50 µM (inactive)	> 50 µM (inactive)	> 50 µM (inactive)	> 50 µM (inactive)	> 50 µM (inactive)	> 50 µM (inactive)	> 50 µM (inactive)	> 50 µM (inactive)	> 50 µM (inactive)	> 50 µM (inactive)	> 50 µM (inactive)	> 50 µM (inactive)	> 50 µM (inactive)	> 50 µM (inactive)	> 50 µM (inactive)	> 50 µM (inactive)	> 50 µM (inactive)	> 50 µM (inactive)
O=C(O)c1cc2cc(c1)/N=C/c1ccccc1OCc1cccc(n1)COc1ccccc1/C=N/2	> 25 µM (inactive)	> 25 µM (inactive)	12.2 µM (inactive)	6.73 µM (inactive)	13 µM (inactive)	11.1 µM (inactive)	4.53 µM (inactive)	> 25 µM (inactive)	> 25 µM (inactive)	5.11 µM (inactive)	12.2 µM (inactive)	24 µM (inactive)	13.2 µM (inactive)	23.3 µM (inactive)	23.8 µM (inactive)	> 25 µM (inactive)	6.38 µM (inactive)	9.68 µM (inactive)	7.66 µM (inactive)	> 25 µM (inactive)
C/C(=N\NC(=S)N1CCCCC1)c1nc2cccnc2[nH]1	17.2 µM (inactive)	4.51 µM (inactive)	3.35 µM (inactive)	7.48 µM (inactive)	9.02 µM (inactive)	7.46 µM (inactive)	14.6 µM (inactive)	13.6 µM (inactive)	12.9 µM (inactive)	5.15 µM (inactive)	4.24 µM (inactive)	5.3 µM (inactive)	5.51 µM (inactive)	16 µM (inactive)	22 µM (inactive)	41.6 µM (inactive)	3.64 µM (inactive)	6.38 µM (inactive)	9.46 µM (inactive)	8 µM (inactive)
